Data reported in the supplement of paper PMC10307832.

How the values were obtained:
Experiment in all cases: relative viability (nuclei count vs DMSO), 5 days (fraction); higher = more cells survive
Adavosertib + Bortezomib = compound: C=CCn1c(=O)c2cnc(Nc3ccc(N4CCN(C)CC4)cc3)nc2n1-c1cccc(C(C)(C)O)n1 [Adavosertib] + CC(C)C[C@H](NC(=O)[C@H](Cc1ccccc1)NC(=O)c1cnccn1)B(O)O [Bortezomib] (partner 0.002 µM)
How it was run: (§1)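 Lung cancer cell lines in 1536-well plates were dosed by pin tool the day after seeding, either with one drug alone or with a fixed anchor-drug dose plus five library-drug doses (not always all listed) in √10 steps. After 5 days, cells were fixed and their nuclei stained in one step (final 0.05% Triton X-100, 1% formaldehyde, 1 ug/ml Hoechst), then counted on 4× images. Relative viability is the nuclei count in treated wells divided by that in vehicle wells. Values are medians of duplicate plates.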

Nelarabine + Dasatinib = compound: COc1nc(N)nc2c1ncn2[C@@H]1O[C@H](CO)[C@@H](O)[C@@H]1O [Nelarabine] + Cc1nc(Nc2ncc(C(=O)Nc3c(C)cccc3Cl)s2)cc(N2CCN(CCO)CC2)n1 [Dasatinib] (partner 0.075 µM)
How it was run: as §1

Adavosertib + Linsitinib = compound: C=CCn1c(=O)c2cnc(Nc3ccc(N4CCN(C)CC4)cc3)nc2n1-c1cccc(C(C)(C)O)n1 [Adavosertib] + C[C@]1(O)C[C@@H](c2nc(-c3ccc4ccc(-c5ccccc5)nc4c3)c3c(N)nccn32)C1 [Linsitinib] (partner 1 µM)
How it was run: as §1

Nelarabine + Palbociclib = compound: COc1nc(N)nc2c1ncn2[C@@H]1O[C@H](CO)[C@@H](O)[C@@H]1O [Nelarabine] + CC(=O)c1c(C)c2cnc(Nc3ccc(N4CCNCC4)cn3)nc2n(C2CCCC2)c1=O [Palbociclib] (partner 0.5 µM)
How it was run: as §1

## NCI-H650
Adavosertib + Bortezomib; first compound 0.01 µM
  relative viability: 0.597
Adavosertib + Bortezomib; first compound 0.03162 µM
  relative viability: 0.795
Adavosertib + Bortezomib; first compound 0.1 µM
  relative viability: 1.07
Adavosertib + Bortezomib; first compound 0.3162 µM
  relative viability: 0.663
Nelarabine + Dasatinib; first compound 0.01 µM
  relative viability: 0.501
Nelarabine + Dasatinib; first compound 0.03162 µM
  relative viability: 0.48
Nelarabine + Dasatinib; first compound 0.1 µM
  relative viability: 0.417
Nelarabine + Dasatinib; first compound 0.3162 µM
  relative viability: 0.51
Nelarabine + Dasatinib; first compound 1 µM
  relative viability: 0.468
Adavosertib + Linsitinib; first compound 0.01 µM
  relative viability: 0.785
Adavosertib + Linsitinib; first compound 0.03162 µM
  relative viability: 0.926
Adavosertib + Linsitinib; first compound 0.1 µM
  relative viability: 0.87
Adavosertib + Linsitinib; first compound 0.3162 µM
  relative viability: 0.712
Nelarabine + Palbociclib; first compound 0.01 µM
  relative viability: 0.338
Nelarabine + Palbociclib; first compound 0.03162 µM
  relative viability: 0.283
Nelarabine + Palbociclib; first compound 0.1 µM
  relative viability: 0.297
Nelarabine + Palbociclib; first compound 0.3162 µM
  relative viability: 0.301
Nelarabine + Palbociclib; first compound 1 µM
  relative viability: 0.363

## HCC-78
Adavosertib + Bortezomib; first compound 0.01 µM
  relative viability: 0.542
Adavosertib + Bortezomib; first compound 0.03162 µM
  relative viability: 0.46
Adavosertib + Bortezomib; first compound 0.1 µM
  relative viability: 0.529
Adavosertib + Bortezomib; first compound 0.3162 µM
  relative viability: 0.573
Nelarabine + Dasatinib; first compound 0.01 µM
  relative viability: 0.384
Nelarabine + Dasatinib; first compound 0.03162 µM
  relative viability: 0.358
Nelarabine + Dasatinib; first compound 0.3162 µM
  relative viability: 0.459
Nelarabine + Dasatinib; first compound 1 µM
  relative viability: 0.37
Adavosertib + Linsitinib; first compound 0.01 µM
  relative viability: 0.597
Adavosertib + Linsitinib; first compound 0.03162 µM
  relative viability: 0.422
Adavosertib + Linsitinib; first compound 0.1 µM
  relative viability: 0.522
Adavosertib + Linsitinib; first compound 0.3162 µM
  relative viability: 0.562
Nelarabine + Palbociclib; first compound 0.01 µM
  relative viability: 0.433
Nelarabine + Palbociclib; first compound 0.03162 µM
  relative viability: 0.41
Nelarabine + Palbociclib; first compound 0.3162 µM
  relative viability: 0.484
Nelarabine + Palbociclib; first compound 1 µM
  relative viability: 0.46

## ABC-1
Adavosertib + Bortezomib; first compound 0.01 µM
  relative viability: 0.247
Adavosertib + Bortezomib; first compound 0.03162 µM
  relative viability: 0.329
Adavosertib + Bortezomib; first compound 0.1 µM
  relative viability: 0.255
Adavosertib + Bortezomib; first compound 0.3162 µM
  relative viability: 0.332
Nelarabine + Dasatinib; first compound 0.01 µM
  relative viability: 0.705
Nelarabine + Dasatinib; first compound 0.03162 µM
  relative viability: 0.462
Nelarabine + Dasatinib; first compound 0.1 µM
  relative viability: 0.507
Nelarabine + Dasatinib; first compound 0.3162 µM
  relative viability: 0.548
Nelarabine + Dasatinib; first compound 1 µM
  relative viability: 0.545
Adavosertib + Linsitinib; first compound 0.01 µM
  relative viability: 1.03
Adavosertib + Linsitinib; first compound 0.03162 µM
  relative viability: 0.849
Adavosertib + Linsitinib; first compound 0.1 µM
  relative viability: 0.647
Adavosertib + Linsitinib; first compound 0.3162 µM
  relative viability: 0.682
Nelarabine + Palbociclib; first compound 0.01 µM
  relative viability: 0.624
Nelarabine + Palbociclib; first compound 0.03162 µM
  relative viability: 0.553
Nelarabine + Palbociclib; first compound 0.1 µM
  relative viability: 0.762
Nelarabine + Palbociclib; first compound 0.3162 µM
  relative viability: 0.625
Nelarabine + Palbociclib; first compound 1 µM
  relative viability: 0.692

## A-427
Adavosertib + Bortezomib; first compound 0.01 µM
  relative viability: 0.906
Adavosertib + Bortezomib; first compound 0.03162 µM
  relative viability: 1.04
Adavosertib + Bortezomib; first compound 0.1 µM
  relative viability: 0.964
Adavosertib + Bortezomib; first compound 0.3162 µM
  relative viability: 0.861
Nelarabine + Dasatinib; first compound 0.01 µM
  relative viability: 0.721
Nelarabine + Dasatinib; first compound 0.03162 µM
  relative viability: 0.662
Nelarabine + Dasatinib; first compound 0.1 µM
  relative viability: 0.753
Nelarabine + Dasatinib; first compound 0.3162 µM
  relative viability: 0.736
Nelarabine + Dasatinib; first compound 1 µM
  relative viability: 0.789
Adavosertib + Linsitinib; first compound 0.01 µM
  relative viability: 1.09
Adavosertib + Linsitinib; first compound 0.03162 µM
  relative viability: 1.05
Adavosertib + Linsitinib; first compound 0.1 µM
  relative viability: 1.05
Adavosertib + Linsitinib; first compound 0.3162 µM
  relative viability: 1.03
Nelarabine + Palbociclib; first compound 0.01 µM
  relative viability: 0.528
Nelarabine + Palbociclib; first compound 0.03162 µM
  relative viability: 0.533
Nelarabine + Palbociclib; first compound 0.1 µM
  relative viability: 0.56
Nelarabine + Palbociclib; first compound 0.3162 µM
  relative viability: 0.533
Nelarabine + Palbociclib; first compound 1 µM
  relative viability: 0.53

## HCC-15
Adavosertib + Bortezomib; first compound 0.01 µM
  relative viability: 1.01
Adavosertib + Bortezomib; first compound 0.03162 µM
  relative viability: 0.953
Adavosertib + Bortezomib; first compound 0.1 µM
  relative viability: 1.07
Adavosertib + Bortezomib; first compound 0.3162 µM
  relative viability: 1.26
Nelarabine + Dasatinib; first compound 0.01 µM
  relative viability: 0.568
Nelarabine + Dasatinib; first compound 0.03162 µM
  relative viability: 0.554
Nelarabine + Dasatinib; first compound 0.1 µM
  relative viability: 0.523
Nelarabine + Dasatinib; first compound 0.3162 µM
  relative viability: 0.639
Nelarabine + Dasatinib; first compound 1 µM
  relative viability: 0.67
Adavosertib + Linsitinib; first compound 0.01 µM
  relative viability: 0.878
Adavosertib + Linsitinib; first compound 0.03162 µM
  relative viability: 0.876
Adavosertib + Linsitinib; first compound 0.1 µM
  relative viability: 1.05
Adavosertib + Linsitinib; first compound 0.3162 µM
  relative viability: 0.989
Nelarabine + Palbociclib; first compound 0.01 µM
  relative viability: 0.847
Nelarabine + Palbociclib; first compound 0.03162 µM
  relative viability: 0.695
Nelarabine + Palbociclib; first compound 0.1 µM
  relative viability: 0.788
Nelarabine + Palbociclib; first compound 0.3162 µM
  relative viability: 0.837
Nelarabine + Palbociclib; first compound 1 µM
  relative viability: 0.677
